The record followed here is patent US20110028546A1, “NOVEL ANTIMICROBIAL FORMULATIONS INCORPORATING ALKYL ESTERS OF FATTY ACIDS AND NANOEMULSIONS THEREOF” (priority 2006, published 2011).

What all share (assay): In vitro antimicrobial efficacy using time kill procedure (ASTM E 2315-03)
What all share (type): cell-based
Common to all, as to settings: 1.0% concentration

In assay [1] the test system is Candida Albicans—ATCC No. 10231. As to the method: (§1) The following target organisms were included in the tests: E. Coli—ATCC No. 8739; Staphylococcus Aureus—ATCC No. 6538 and Candida Albicans—ATCC No. 10231. The initial inoculum counts for all the organisms were between 10^6 and 10^8 CFUs/ml.
(§2) The testing procedure was according to ASTM E 2315-03 standards and protocols. The exposure times were 2 minutes and 10 minutes. Each test concentration was tested in duplicate and each sample was plated in duplicate.
(§3) The log reduction expresses the efficacy of the antimicrobial formulation against the target organism. The final mean number of Colony Forming Units (CFUs) per ml of test solution at a given exposure time log 10 is calculated as follows:
(§4) Mean No. of CFUs/ml ═Na=C/(n×D×V)
(§5) • C=Total number of colonies counted on all plates • V=Sample volume used to prepare the pour plate (1 ml) • D=Dilution factor (0.01) • n=Number of plates taken into account • a=exposure time
(§6) The mean log reduction is calculated using the equation: […]
(§7) Mean log reduction log 10(NI×0.01)−log 10 (Na)
(§8) Where NI is the initial organism count

In the next assay the test system is E. Coli—ATCC No. 8739. As to the method:
as §1, §2, §3, §4, §5, §6, §7, §8

For assay [2], the system named is Staphylococcus Aureus—ATCC No. 6538. As to the method:
as §1, §2, §3, §4, §5, §6, §7, §8

Bounds are passed on as bounds.

In the case of `CC(O)C(=O)O` (stereo not drawn) [LA 88, Lactic Acid 88%], the “2 minute log reduction, Candida Albicans” value in assay [1] (2 minutes exposure) is recorded as 2.69. Further, the “10 minute log reduction, Candida Albicans” value in assay [1] (10 minutes exposure) is 2.79. For the same compound, in the assay with E. Coli—ATCC No. 8739 (2 minutes exposure), the “2 minute log reduction, E. Coli” value amounted to 2.36. Also, the “10 minute log reduction, E. Coli” value with E. Coli—ATCC No. 8739 (10 minutes exposure) is reported as 2.41. Further, in assay [2] (2 minutes exposure), the “2 minute log reduction, S. Aureus” value was under 2.0. Moreover, the “10 minute log reduction, S. Aureus” value in assay [2] (10 minutes exposure) is under 2.0.
